{
  "source": "patent US11917908B2",
  "about": "“Organic compound, optical device, light-emitting device, light-emitting apparatus, electronic device, and lighting device” (SEMICONDUCTOR ENERGY LABORATORY CO., LTD., priority 2019, dated 2024)",
  "assay_type_in_all_cases": "physicochemical",
  "key": {"[1]": {"assay": "Thermogravimetry-differential thermal analysis (TG-DTA), weight reduction temperature", "conditions": "for Temperature at TG −5% (weight reduction temperature): weight reduced from initial weight by 5%; for Temperature at TG −5% (weight reduction temperature) / Temperature at TG −10% (weight reduction temperature) / Temperature at TG −50% (weight reduction temperature): 10 Pa, temperature rising rate 10° C./min; for Temperature at TG −10% (weight reduction temperature): weight reduced from initial weight by 10%; for Temperature at TG −50% (weight reduction temperature): weight reduced from initial weight by 50%", "method": "The thermogravimetry-differential thermal analysis (TG-DTA) of these four substances was performed. The measurement was performed with a high vacuum differential type differential thermal balance (TG-DTA2410SA, produced by Bruker AXS K.K.). […] The temperatures of the time when the weight of the organic compounds is reduced from the initial weight by 5%, 10%, and 50% (weight reduction temperature) are shown in Table 3."}, "[2]": {"assay": "Solubility in a solvent (toluene, 25° C.)", "conditions": "for solubility: organic solvent or mixture, 1M", "method": "The measurement results on the solubility of 3,10PCA2Nbf(IV)-02 and 3,10mmtBuPCA2Nbf(IV)-02 in a solvent are shown below. The solubility in the table are that in toluene at 25° C. Consequently, the organic compound of one embodiment of the present invention has improved solubility in a solvent owing to the bonding of the secondary or tertiary alkyl groups having 3 to 6 carbon atoms and having a branched carbon atom which is bonded to the phenyl group to the two meta-positions of the phenyl group bonded to the 9-position of the carbazolyl group. Thus, the organic compound of one embodiment of the present invention can be easily produced owing to the easy purification."}, "[3]": {"assay": "Behaviour at sublimation purification", "conditions": "at the time of sublimation purification"}},
  "data": [
    {"smiles": "c1ccc(N(c2ccc3c(c2)oc2cc4cc5c(cc4cc23)oc2cc(N(c3ccccc3)c3ccc4c6ccccc6n(-c6ccccc6)c4c3)ccc25)c2ccc3c4ccccc4n(-c4ccccc4)c3c2)cc1", "note": "[3,10PCA2Nbf(IV)-02, 3,10-bis[N-(9-phenyl-9H-carbazol-2-yl)-N-phenylamino]naphtho[2,3-b;6,7-b′]bisbenzofuran]", "values": [
      {"measurement": "Temperature at TG −5% (weight reduction temperature)", "setting": "[1]", "value": 398, "unit": "°C"},
      {"measurement": "Temperature at TG −10% (weight reduction temperature)", "setting": "[1]", "value": 411, "unit": "°C"},
      {"measurement": "Temperature at TG −50% (weight reduction temperature)", "setting": "[1]", "value": 442, "unit": "°C"},
      {"measurement": "solubility", "setting": "[2]", "value": "< 10", "unit": "mM"}
    ]},
    {"smiles": "CCCCCCc1cc(CCCCCC)cc(-n2c3ccccc3c3ccc(N(c4ccccc4)c4ccc5c(c4)oc4cc6cc7c(cc6cc45)oc4cc(N(c5ccccc5)c5ccc6c8ccccc8n(-c8cc(CCCCCC)cc(CCCCCC)c8)c6c5)ccc47)cc32)c1", "note": "[3,10mmHexPCA2Nbf(IV)-02, N,N-bis[9-(3,5-dihexylphenyl)-9H-carbazol-2-yl]-N,N-diphenyl-naphtho[2,3-b;6,7-b′]bisbenzofuran-3,10-diamine]", "values": [
      {"measurement": "Temperature at TG −5% (weight reduction temperature)", "setting": "[1]", "value": 384, "unit": "°C"},
      {"measurement": "Temperature at TG −10% (weight reduction temperature)", "setting": "[1]", "value": 407, "unit": "°C"},
      {"measurement": "Temperature at TG −50% (weight reduction temperature)", "setting": "[1]", "value": 442, "unit": "°C"},
      {"measurement": "Stability at sublimation purification", "setting": "[3]", "value": "decomposed at the time of sublimation purification"}
    ]},
    {"smiles": "CC(C)(C)c1cc(-n2c3ccccc3c3ccc(N(c4ccccc4)c4ccc5c(c4)oc4cc6cc7c(cc6cc45)oc4cc(N(c5ccccc5)c5ccc6c8ccccc8n(-c8cc(C(C)(C)C)cc(C(C)(C)C)c8)c6c5)ccc47)cc32)cc(C(C)(C)C)c1", "note": "[3,10mmtBuPCA2Nbf(IV)-02, N,N-bis[9-(3,5-di-tert-butylphenyl)-9H-carbazol-2-yl]-N,N-diphenyl-naphtho[2,3-b;6,7-b′]bisbenzofuran-3,10-diamine]", "values": [
      {"measurement": "Sublimability (from weight reduction temperatures)", "setting": "[1]; comparison of the four substances of Table 3", "value": "highest sublimability"},
      {"measurement": "Temperature at TG −5% (weight reduction temperature)", "setting": "[1]", "value": 378, "unit": "°C"},
      {"measurement": "Temperature at TG −10% (weight reduction temperature)", "setting": "[1]", "value": 394, "unit": "°C"},
      {"measurement": "Temperature at TG −50% (weight reduction temperature)", "setting": "[1]", "value": 423, "unit": "°C"},
      {"measurement": "Solubility 0.01M", "setting": "[2]; 0.01M", "value": "∘"},
      {"measurement": "Solubility 0.1M", "setting": "[2]; 0.1M", "value": "∘"},
      {"measurement": "solubility", "setting": "[2]", "value": "< 1000", "unit": "mM"}
    ]},
    {"smiles": "CCc1cc(CC)cc(-n2c3ccccc3c3ccc(N(c4ccccc4)c4ccc5c(c4)oc4cc6cc7c(cc6cc45)oc4cc(N(c5ccccc5)c5ccc6c8ccccc8n(-c8cc(CC)cc(CC)c8)c6c5)ccc47)cc32)c1", "note": "[3,10mmEtPCA2Nbf(IV)-02, N,N-bis[9-(3,5-diethylphenyl)-9H-carbazol-2-yl]-N,N-diphenyl-naphtho[2,3-b;6,7-b′]bisbenzofuran-3,10-diamine]", "values": [
      {"measurement": "Temperature at TG −5% (weight reduction temperature)", "setting": "[1]", "value": 380, "unit": "°C"},
      {"measurement": "Temperature at TG −10% (weight reduction temperature)", "setting": "[1]", "value": 402, "unit": "°C"},
      {"measurement": "Temperature at TG −50% (weight reduction temperature)", "setting": "[1]", "value": 436, "unit": "°C"}
    ]}
  ]
}
